Among the test systems are SW-620 colon; HT29 colon; UACC-257 melanoma; SNB-75 CNS; OVCAR-3 ovarian; A498 renal; MALME-3M melanoma; TK-10 renal; CCRF-CEM leukemia; SF-268 CNS.
What all share (experiment): NCI anticancer screen, dose series, 48 h

Structures are written as SMILES.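 Test compounds were applied to cells in 96-well plates for 48 hours at 5 doses. At the GI50, growth is halved. TGI: total growth inhibition.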

In the case of `COC(OC)c1cc2c(cc1C(=O)[C@@]13CCC[C@@H]1NC(=O)O3)OCO2`, the TGI in the test with SW-620 colon, in the test on HT29 colon, in the test on UACC-257 melanoma, with SNB-75 CNS, with OVCAR-3 ovarian and in the test with A498 renal was > 100 µM each time. Moreover, the TGI in the test on MALME-3M melanoma, in the test on TK-10 renal, with CCRF-CEM leukemia and in the test with SF-268 CNS was > 100 µM in each case.

Turning to `COc1ccc(CCN=C2CCC(C(=O)NCCc3ccc(OC)c(OC)c3)N2)cc1OC` (centres undefined), the TGI in the test with SW-620 colon, with HT29 colon, in the test with UACC-257 melanoma, in the test on SNB-75 CNS, in the test on OVCAR-3 ovarian and in the test with A498 renal was > 100 µM in each case. Further, the TGI in the test with MALME-3M melanoma, in the test with TK-10 renal, in the test with CCRF-CEM leukemia and in the test with SF-268 CNS was > 100 µM throughout.

With `CC(=O)C1C(=O)N(C(C)C)C[C@@H]2CCC(=O)C[C@H]12` (some centres undefined), the TGI in the test on SW-620 colon, in the test with HT29 colon, in the test with UACC-257 melanoma, in the test with SNB-75 CNS, in the test on OVCAR-3 ovarian and with A498 renal was > 100 µM in each case. The TGI in the test on MALME-3M melanoma, with TK-10 renal, with CCRF-CEM leukemia and with SF-268 CNS was > 100 µM each time.

Turning to `Cc1c(C(=O)CSc2nc3ccccc3[nH]2)c(=O)n(-c2ccccc2)n1C`, the TGI in the test on SW-620 colon, with HT29 colon, in the test on UACC-257 melanoma, in the test on SNB-75 CNS, with OVCAR-3 ovarian and with A498 renal was > 100 µM in each case. The TGI in the test on MALME-3M melanoma, in the test on TK-10 renal, with CCRF-CEM leukemia and in the test on SF-268 CNS was > 100 µM throughout.

As to `C/C(CC(=O)N(C(C)C)C(C)C)=N\NC(=O)c1ccncc1`, the TGI in the test with SW-620 colon, in the test with HT29 colon, in the test with UACC-257 melanoma, in the test with SNB-75 CNS, in the test with OVCAR-3 ovarian and in the test with A498 renal was > 100 µM in each case. Besides, the TGI in the test on MALME-3M melanoma, with CCRF-CEM leukemia and in the test on SF-268 CNS was > 100 µM in each case.

With `COc1cccc(/C=C/C(=O)c2cc3c(N)c(C(=O)Nc4cccc5ccccc45)sc3nc2C)c1`, the GI50 in the test with SW-620 colon is 0.538 µM; in the test with HT29 colon it was 0.65 µM; in the test with UACC-257 melanoma it was 1.48 µM; in the test with SNB-75 CNS it was 1.02 µM; with OVCAR-3 ovarian it was 0.892 µM; with A498 renal, 0.885 µM. Also, the GI50 was 1.96 µM with MALME-3M melanoma, 1.78 µM in the test with TK-10 renal, 0.256 µM with CCRF-CEM leukemia and 1.89 µM in the test with SF-268 CNS. Also, the TGI is 3.1 µM in the test with SW-620 colon; 2.06 µM in the test with HT29 colon; 10.6 µM with UACC-257 melanoma; 3.15 µM in the test with SNB-75 CNS; 2.07 µM in the test with OVCAR-3 ovarian; 2.74 µM with A498 renal. The TGI with MALME-3M melanoma, in the test on TK-10 renal, in the test on CCRF-CEM leukemia and in the test on SF-268 CNS was > 50 µM each time.

In the case of `CC1CCC2N(C1)CC1C3(O)CC45OC6(O)C(O)CCC4(C)C6CCC5C3(O)CC(O)C1(O)C2(C)O` (centres undefined), the TGI with SW-620 colon, with HT29 colon, in the test on UACC-257 melanoma, with SNB-75 CNS, in the test with OVCAR-3 ovarian and with A498 renal was > 100 µM each time. For the same compound, the TGI in the test on MALME-3M melanoma, in the test on TK-10 renal, with CCRF-CEM leukemia and in the test on SF-268 CNS was > 100 µM in each case.

Take `CCOC(=O)C(NC(=O)c1[nH]cnc1/N=N/N(C)C)C(C)C` (centres undefined): the TGI in the test with SW-620 colon, in the test with HT29 colon, with UACC-257 melanoma, in the test with SNB-75 CNS, with OVCAR-3 ovarian and in the test with A498 renal was > 100 µM throughout. For the same compound, the TGI with MALME-3M melanoma, in the test on TK-10 renal, in the test on CCRF-CEM leukemia and in the test on SF-268 CNS was > 100 µM throughout.

As for `CC(=O)N(Cc1ccccc1)c1ccccc1I(=O)=O`, the GI50 was 29.4 µM in the test on SW-620 colon; 27.8 µM in the test on HT29 colon; > 100 µM with UACC-257 melanoma; 50.9 µM with SNB-75 CNS; 33.9 µM in the test with OVCAR-3 ovarian; 49.7 µM in the test with A498 renal. The GI50 is 19.3 µM with MALME-3M melanoma, 45.2 µM in the test on TK-10 renal, 16.6 µM with CCRF-CEM leukemia and 16.2 µM in the test with SF-268 CNS. For the same compound, the TGI with SW-620 colon was 91.9 µM; in the test with HT29 colon it was > 100 µM; with UACC-257 melanoma, > 100 µM; in the test on SNB-75 CNS, > 100 µM; in the test with OVCAR-3 ovarian, > 100 µM; in the test on A498 renal, > 100 µM. In addition, the TGI with MALME-3M melanoma was > 100 µM; in the test on TK-10 renal it was > 100 µM; in the test on CCRF-CEM leukemia, 35.5 µM; with SF-268 CNS it was 48.9 µM.

With `CN1CCc2c1nc(-c1ccc([N+](=O)[O-])cc1)c1c2N(C)CC1`, the TGI with SW-620 colon, in the test with HT29 colon, with UACC-257 melanoma, in the test on SNB-75 CNS, with OVCAR-3 ovarian and in the test with A498 renal was > 100 µM each time. The TGI with MALME-3M melanoma, with TK-10 renal, in the test on CCRF-CEM leukemia and in the test with SF-268 CNS was > 100 µM throughout.

With `CC1CC[C@]2(C(=O)O)CCC3(C)C(=CCC4[C@@]5(C)CC[C@H](OS(=O)(=O)c6ccccc6)C(C)(C)C5CC[C@]43C)[C@@H]2[C@H]1C` (some centres undefined), the TGI in the test with SW-620 colon, in the test with HT29 colon, with UACC-257 melanoma, with SNB-75 CNS, in the test with OVCAR-3 ovarian and in the test with A498 renal was > 100 µM throughout. Besides, the TGI with MALME-3M melanoma, in the test on TK-10 renal, in the test with CCRF-CEM leukemia and with SF-268 CNS was > 100 µM in each case.

Source of the values: PubChem BioAssay (NCI).
